Earlier results as cited in patent US9446032B2, “Methods for treating cardiovascular disorders” (WOCKHARDT LIMITED, priority 2011, dated 2016).

How the values were obtained:
[1] = incomplete owing to extensive first pass metabolism

| solubility in ethanol (ethanol) | solubility in water (water) | solubility (BCS) | bioavailability [1] | SMILES |
| --- | --- | --- | --- | --- |
| sparingly soluble | slightly soluble | – | – | CCOC(=O)C1=C(COCCN)NC(C)=C(C(=O)OC)C1c1ccccc1Cl (stereo not shown) [Amlodipine besylate] |
| – | – | highly soluble | about 50% | COCCc1ccc(OCC(O)CNC(C)C)cc1 (stereo not shown) [Metoprolol] |
